Consider 13 molecules from patent US20260125346A1, “Isoquinolinone Derivatives and 4H-Quinolizinone Derivatives and Pharmaceutical Compositions Thereof for the Treatment of Disease” (BeOne Medicines I GmbH, priority 2023, published 2026).

The test system of test [1] is PI3Kα H1047R mutated cell line T-47D cells. The test is described as follows: Cell Proliferation Assay (CellTiter-Glo), T-47D. The format is cell-based. To be noted: for IC50: Homo sapiens, T47D, 72 h, T-47D, 3 days treatment; for Selectivity: SK-BR-3/T-47D (cell proliferation): cell proliferation IC50 ratio. The procedure, abridged: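 T-47D cells seeded overnight at 3×10^3/well, then exposed 3 days to 9-point 1:3 dilutions, final […] to 1 nM in 0.1% DMSO. CellTiter-Glo luminescence; relative IC50 from percent inhibition versus medium-only and 0.1% DMSO controls, 4-parameter logistic fit.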

The test system of test [2] is PI3Kα H1047R mutated cell line T-47D. Nature of the test: Phospho-AKT (Ser473) Inhibition Assay (HTRF), T-47D. It is filed as cell-based. To be noted: for IC50: Homo sapiens, T47D, T-47D, 1 hour treatment, read-out: p-AKT Inhibition assay (S473) IC50 T-47D; for Selectivity: SK-BR-3/T-47D (p-AKT): p-AKT (S473) IC50 ratio. In outline: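 Cells seeded overnight in insulin-supplemented MEM, then treated 1 h with 11-point 1:3 compound dilutions (10 μM to 0.1 nM final, 0.1% DMSO). Lysates assayed for phospho-AKT Ser473 by HTRF; IC50 from 4-parameter logistic fit, normalised to DMSO (max) and 10 μM GDC0077 (min).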

The target in test [3] is PI3Kα (p110[H1047R]/p85) kinase (Homo sapiens, UniProt P42336, H1047R). Nature of the test: PI3Kα (p110[H1047R]/p85) kinase ADP-Glo Assay. The format is biochemical. To be noted: 25 uM ATP; for selectivity: WT/H1047R: ADP-Glo Assay IC50 ratio. In outline: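 PI3Kα H1047R/p85 pre-incubated 30 min at room temperature with PI(4,5)P2:PS substrate ([…]) and compound ([…]) in HEPES pH 7.5 buffer with MgCl2; ATP ([…]) then added for 120 min. ADP quantified by ADP-Glo luminescence; IC50 from four-parameter logistic fit.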
PI3Kα (p110[H1047R]/p85) kinase, sequence (P42336 whole entry H1047R): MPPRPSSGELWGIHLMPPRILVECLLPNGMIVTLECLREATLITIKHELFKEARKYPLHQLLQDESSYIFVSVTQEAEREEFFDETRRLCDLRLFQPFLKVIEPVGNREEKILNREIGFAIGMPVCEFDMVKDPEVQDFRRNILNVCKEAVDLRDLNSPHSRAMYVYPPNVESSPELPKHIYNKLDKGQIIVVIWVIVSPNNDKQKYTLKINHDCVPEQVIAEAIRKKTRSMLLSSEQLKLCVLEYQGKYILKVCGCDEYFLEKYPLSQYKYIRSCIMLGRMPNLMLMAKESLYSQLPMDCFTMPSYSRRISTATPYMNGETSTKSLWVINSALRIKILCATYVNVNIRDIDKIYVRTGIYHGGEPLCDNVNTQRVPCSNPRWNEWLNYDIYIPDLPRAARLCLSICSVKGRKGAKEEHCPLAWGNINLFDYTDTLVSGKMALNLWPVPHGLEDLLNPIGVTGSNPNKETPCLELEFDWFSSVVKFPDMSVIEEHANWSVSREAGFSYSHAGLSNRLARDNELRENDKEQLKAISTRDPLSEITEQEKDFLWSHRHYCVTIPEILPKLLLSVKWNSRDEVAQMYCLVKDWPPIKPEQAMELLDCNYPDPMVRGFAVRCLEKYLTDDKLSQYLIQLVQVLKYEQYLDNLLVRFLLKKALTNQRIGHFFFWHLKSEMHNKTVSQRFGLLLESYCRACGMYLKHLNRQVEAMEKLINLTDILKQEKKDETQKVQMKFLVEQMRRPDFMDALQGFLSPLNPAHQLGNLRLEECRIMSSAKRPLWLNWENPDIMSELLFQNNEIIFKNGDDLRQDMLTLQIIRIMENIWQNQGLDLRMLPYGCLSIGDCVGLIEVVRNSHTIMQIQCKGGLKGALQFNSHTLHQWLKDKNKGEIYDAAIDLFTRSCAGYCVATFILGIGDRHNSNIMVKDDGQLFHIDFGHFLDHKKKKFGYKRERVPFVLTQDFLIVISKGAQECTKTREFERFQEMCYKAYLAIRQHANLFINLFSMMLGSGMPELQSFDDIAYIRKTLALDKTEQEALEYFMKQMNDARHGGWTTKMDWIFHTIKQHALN
PI3Kα (p110[H1047R]/p85) kinase, sequence (P27986 whole entry partner): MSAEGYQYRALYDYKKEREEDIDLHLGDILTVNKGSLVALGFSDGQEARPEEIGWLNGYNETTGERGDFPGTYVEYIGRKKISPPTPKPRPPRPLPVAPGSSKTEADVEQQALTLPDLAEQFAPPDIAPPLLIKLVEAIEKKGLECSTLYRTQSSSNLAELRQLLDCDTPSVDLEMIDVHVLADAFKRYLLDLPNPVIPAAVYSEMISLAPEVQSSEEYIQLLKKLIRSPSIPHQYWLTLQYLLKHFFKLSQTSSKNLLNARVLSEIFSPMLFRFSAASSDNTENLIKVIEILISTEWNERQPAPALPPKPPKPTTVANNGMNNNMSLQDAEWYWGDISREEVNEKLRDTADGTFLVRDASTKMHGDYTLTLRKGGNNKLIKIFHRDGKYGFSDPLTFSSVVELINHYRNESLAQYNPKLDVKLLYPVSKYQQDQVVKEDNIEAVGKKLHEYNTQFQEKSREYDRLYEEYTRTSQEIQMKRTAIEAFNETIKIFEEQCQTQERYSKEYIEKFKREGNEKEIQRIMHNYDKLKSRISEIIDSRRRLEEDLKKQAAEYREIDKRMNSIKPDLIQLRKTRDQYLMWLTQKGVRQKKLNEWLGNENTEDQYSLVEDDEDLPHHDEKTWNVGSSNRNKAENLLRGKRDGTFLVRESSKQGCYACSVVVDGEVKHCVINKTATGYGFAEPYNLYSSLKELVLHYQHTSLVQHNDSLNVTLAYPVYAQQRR

Consider `Cc1cc(C(C)Nc2ccccc2C(=O)O)c2cc(C3=CCN(c4ccccc4)C3)n(C)c(=O)c2c1` (centres unmarked) [Example 76, 2-((1-(2,7-dimethyl-1-oxo-3-(1-phenyl-2,5-dihydro-1H-pyrrol-3-yl)-1,2-dihydroisoquinolin-5-yl)ethyl)amino)benzoic acid], for which, in test [1], 674 nM corresponded to half-maximal inhibition (IC50) and the “Selectivity: SK-BR-3/T-47D (cell proliferation)” value is recorded as above 14.8. Moreover, in test [2], the IC50 was 123 nM and the “Selectivity: SK-BR-3/T-47D (p-AKT)” value turned out to be 43.5. In test [3], the IC50 amounted to 516 nM and the “selectivity: WT/H1047R” value is listed as 22.8.

Consider `Cc1cc(C(C)Nc2ccccc2C(=O)O)c2cc(-c3ccn(-c4ccccc4)c3)n(C)c(=O)c2c1` (centres unmarked) [Example 77, 2-((1-(2,7-dimethyl-1-oxo-3-(1-phenyl-1H-pyrrol-3-yl)-1,2-dihydroisoquinolin-5-yl)ethyl)amino)benzoic acid], for which, in test [1], the IC50 turned out to be 1400 nM and the “Selectivity: SK-BR-3/T-47D (cell proliferation)” value was above 7.1. Further, in test [2], the IC50 is 84.3 nM and the “Selectivity: SK-BR-3/T-47D (p-AKT)” value stood at 24.2. In test [3], the half-maximal inhibitory concentration (IC50) stood at 325 nM and the “selectivity: WT/H1047R” value was found to be 21.4.

As for `Cc1cc(C(C)Nc2ccccc2C(=O)O)c2cc(-c3ccc(CN4CCOCC4)nc3)n(C)c(=O)c2c1` (centres unmarked) [Example 78, 2-((1-(2,7-dimethyl-3-(6-(morpholinomethyl)pyridin-3-yl)-1-oxo-1,2-dihydroisoquinolin-5-yl)ethyl)amino)benzoic acid], in test [1], the IC50 amounted to 329 nM and the “Selectivity: SK-BR-3/T-47D (cell proliferation)” value is above 30. In addition, in test [2], the IC50 is 1950 nM and the “Selectivity: SK-BR-3/T-47D (p-AKT)” value is above 5.12. Further, in test [3], half-maximal inhibition (IC50) was put at 2210 nM and the “selectivity: WT/H1047R” value amounted to 29.7.

For the molecule `Cc1cc(C(C)Nc2ccccc2C(=O)O)c2cc(-c3ccc(P(C)(C)=O)cc3)n(C)c(=O)c2c1` (centres unmarked) [Example 79, 2-((1-(3-(4-(dimethylphosphoryl)phenyl)-2,7-dimethyl-1-oxo-1,2-dihydroisoquinolin-5-yl)ethyl)amino)benzoic acid], the results for the IC50 in test [1], in test [2] and in test [3] were above 10000 nM, above 10000 nM and 2420 nM, respectively. Moreover, the “selectivity: WT/H1047R” value in test [3] was determined as 24.4.

With `Cc1cc(C(C)Nc2ccccc2C(=O)O)c2cc(C#Cc3cnn(C)c3)n(C)c(=O)c2c1` (centres unmarked) [Example 80, 2-((1-(2,7-dimethyl-3-((1-methyl-1H-pyrazol-4-yl)ethynyl)-1-oxo-1,2-dihydroisoquinolin-5-yl)ethyl)amino)benzoic acid], in test [1], the IC50 was found to be 254 nM and the “Selectivity: SK-BR-3/T-47D (cell proliferation)” value is on record as above 39.4. Also, in test [2], the IC50 was determined as 69.8 nM and the “Selectivity: SK-BR-3/T-47D (p-AKT)” value came to 44.1. Moreover, in test [3], inhibition was half-maximal at 304 nM (IC50) and the “selectivity: WT/H1047R” value was 10.8.

As to `CCn1c(-c2ccc(F)cc2)cc2c(C(C)Nc3ccc(Cl)nc3C(=O)O)cc(C)cc2c1=O` (centres unmarked) [Example 81, 6-chloro-3-((1-(2-ethyl-3-(4-fluorophenyl)-7-methyl-1-oxo-1,2-dihydroisoquinolin-5-yl)ethyl)amino)picolinic acid], in test [1], the IC50 was 770 nM and the “Selectivity: SK-BR-3/T-47D (cell proliferation)” value was above 13. Moreover, in test [2], the IC50 was found to be 40.9 nM and the “Selectivity: SK-BR-3/T-47D (p-AKT)” value came out at 45.6. For the same molecule, in test [3], the IC50 was 215 nM and the “selectivity: WT/H1047R” value stood at 17.6.

Take `Cc1cc(C(C)Nc2ccccc2S(C)(=O)=O)c2cc(-c3ccccc3)n(C)c(=O)c2c1` (centres unmarked) [Example 82, 2,7-dimethyl-5-(1-((2-(methylsulfonyl)phenyl)amino)ethyl)-3-phenylisoquinolin-1(2H)-one]: the IC50 is above 10000 nM in test [1], 155 nM in test [2] and 549 nM in test [3]. Moreover, the “Selectivity: SK-BR-3/T-47D (p-AKT)” value in test [2] was 13.0. Moreover, the “selectivity: WT/H1047R” value in test [3] was determined as 6.0.

`Cc1cc(C(C)Nc2ccccc2C(=O)O)c2cc(-c3ccc(N4CCCC4)cc3)n(C)c(=O)c2c1` (centres unmarked) [Example 84, 2-((1-(2,7-dimethyl-1-oxo-3-(4-(pyrrolidin-1-yl)phenyl)-1,2-dihydroisoquinolin-5-yl)ethyl)amino)benzoic acid]: in test [1], inhibition was half-maximal at 465 nM (IC50) and the “Selectivity: SK-BR-3/T-47D (cell proliferation)” value is above 22. For the same molecule, in test [2], the IC50 was found to be 60 nM and the “Selectivity: SK-BR-3/T-47D (p-AKT)” value was determined as 52.0. In test [3], the half-inhibitory concentration (IC50) was found to be 242 nM and the “selectivity: WT/H1047R” value is 60.4.

`Cc1cc(C(C)Nc2ccccc2C(=O)O)c2cc(-c3ccc(C(F)(F)F)nc3)n(C)c(=O)c2c1` (centres unmarked) [Example 86, 2-((1-(2,7-dimethyl-1-oxo-3-(6-(trifluoromethyl)pyridin-3-yl)-1,2-dihydroisoquinolin-5-yl)ethyl)amino)benzoic acid]: in test [1], the IC50 is 375 nM and the “Selectivity: SK-BR-3/T-47D (cell proliferation)” value was above 26.6. Also, in test [2], the IC50 is 372 nM and the “Selectivity: SK-BR-3/T-47D (p-AKT)” value is on record as above 27. Further, in test [3], 575 nM corresponded to half-maximal inhibition (IC50) and the “selectivity: WT/H1047R” value amounted to 26.3.

Turning to `Cc1cc(C(C)Nc2ccccc2C(=O)O)c2cc(-c3cnn(CC45CC6C[C@H](C4)C[C@H](C6)C5)c3C)n(C)c(=O)c2c1` (stereo partly drawn) [Example 87, 2-((1-(3-(1-(((3S,5S)-adamantan-1-yl)methyl)-5-methyl-1H-pyrazol-4-yl)-2,7-dimethyl-1-oxo-1,2-dihydroisoquinolin-5-yl)ethyl)amino)benzoic acid], in test [1], the half-inhibitory concentration (IC50) came to 890 nM and the “Selectivity: SK-BR-3/T-47D (cell proliferation)” value was above 11.2. In test [2], the IC50 stood at 432 nM and the “Selectivity: SK-BR-3/T-47D (p-AKT)” value turned out to be 6.6. Also, in test [3], the IC50 was determined as 1500 nM and the “selectivity: WT/H1047R” value amounted to 23.5.

`Cc1cc(C(C)Nc2ccccc2C(=O)O)c2cc(C#Cc3ccn(C)n3)n(C)c(=O)c2c1` (centres unmarked) [Example 88, 2-((1-(2,7-dimethyl-3-((1-methyl-1H-pyrazol-3-yl)ethynyl)-1-oxo-1,2-dihydroisoquinolin-5-yl)ethyl)amino)benzoic acid]: in test [1], the midpoint of inhibition, the IC50, lay at 695 nM and the “Selectivity: SK-BR-3/T-47D (cell proliferation)” value was above 14. In test [2], the IC50 came to 68.5 nM and the “Selectivity: SK-BR-3/T-47D (p-AKT)” value came out at 28.3. Moreover, in test [3], the IC50 turned out to be 152 nM and the “selectivity: WT/H1047R” value is given as 11.5.

As for `Cc1cc(C(C)Nc2ccccc2C(=O)O)c2cc(C#CC3(O)CCCC3)n(C)c(=O)c2c1` (centres unmarked) [Example 89, 2-((1-(3-((1-hydroxycyclopentyl)ethynyl)-2,7-dimethyl-1-oxo-1,2-dihydroisoquinolin-5-yl)ethyl)amino)benzoic acid], in test [1], half-maximal inhibition (IC50) was put at 938 nM and the “Selectivity: SK-BR-3/T-47D (cell proliferation)” value is listed as above 11. In test [2], the IC50 was determined as 184 nM and the “Selectivity: SK-BR-3/T-47D (p-AKT)” value is on record as 37.2. Moreover, in test [3], the half-maximal inhibitory concentration (IC50) was found to be 158 nM and the “selectivity: WT/H1047R” value stood at 43.3.

Take `Cc1cc(C(C)Nc2ccccc2C(=O)O)c2cc(C#Cc3cnn(-c4ccccc4)c3)n(C)c(=O)c2c1` (centres unmarked) [Example 94, 2-((1-(2,7-dimethyl-1-oxo-3-((1-phenyl-1H-pyrazol-4-yl)ethynyl)-1,2-dihydroisoquinolin-5-yl)ethyl)amino)benzoic acid]: the IC50 in test [1] is above 10000 nM. Further, in test [2], the IC50 is 3280 nM and the “Selectivity: SK-BR-3/T-47D (p-AKT)” value was above 3.05. Also, in test [3], the IC50 worked out at 387 nM and the “selectivity: WT/H1047R” value is above 258.
